Legend:
[1] = tested on: patients with chronic intractable lower back pain and positive discography; assay: Biochemical injection treatment in human subjects (intradiscal injection; disability questionnaire and visual analogue pain scale); assay type: in vivo; conditions: intradiscal injection of 1 to 2 cc disc solution per involved disc
From the text: Thirty patients with chronic intractable lower back pain and positive discography would participate in the study. These would be adult patients with chronic lower back pain who have been unresponsive or responded poorly to multiple previous methods of treatment, including physical therapy, multiple analgesics, injection therapy, laminectomies, fusions and intradiscal electrothermal annuloplasty (IDET) procedures. These patients would have positive discography at one or more lumbar levels and concordant pain provocation combined with morphologic disc abnormalities.
Using sterile techniques and United States Pharmacopeia-grade pharmaceuticals solutions containing the NOS inhibitors are prepared, specifically, one solution is prepared for each of GED, L-NAME, and L-NMMA. The “GED disc solution” consists of 0.3 mg/kg to 10 mg/kg GED by subject weight; 1.0 to 100 micromolar by concentration. The “L-NAME disc solution” consists of 1.0 mg/kg L-NAME by subject weight; 5.0 to 100 micromolar by concentration. The “L-NMMA disc solution” consists of 1.0 mg/kg L0NMA by subject weight; 5.0 to 100 micromolar by concentration. These concentrations are derived based on solubility and tolerance characteristics of the constituents. These are mixed with 33% nonionic contrast and 33% of 50% dextrose at the time of injection. A total of 1 to 2 cc of each solution is injected into each involved disc. All solutions are tested on separate patients. Injection promptly terminates if there is any leakage of contrast into the epidural space. Zygapophyseal joint injections are performed after fluroscopic confirmation of correct needle placement using intra-articular contrast and are performed at the same levels as the disc injections.
To avoid patient discomfort, the first series of injections are performed at the time of diagnostic discography. An intradiscal injection of 1 to 2 cc is used at each involved disc level. The levels are determined by discography. This is combined with injection of the zygapophyseal joints at the painful disc level(s) with the modified solution mixture as described above. […]

[2] = tested on: disc tissue obtained from human subjects; conditions: in vitro; cited from earlier work

| Compound | treatment outcome: pain and disability before and after treatment (disability questionnaire 0-24, visual analogue pain scale 0-10) [1] | level of NO present in disc tissue [2] |
| --- | --- | --- |
| COC(=O)[C@@H](N)CCCNC(=N)N[N+](=O)[O-] [L-NAME, nitro-L-arginine methyl ester] | effective in treating the patients and providing symptomatic relief |  |
| [H]/N=C(\NC)NCCC[C@H](N)C(=O)O [L-NMMA, N-monomethyl-L-arginine] | effective in treating the patients and providing symptomatic relief | reduce the level of NO present |
| N=C(N)NCCSSCCNC(=N)N [GED, guanidinoethyldisulfide] | effective in treating the patients and providing symptomatic relief |  |

Source: US20070043118A1, “Method of treating a subject suffering from degenerative disc disease using a nitric oxide synthase inhibitor” (Discogen, LLC, priority 2005, published 2007)
